{
  "source": "patent US9096643B2",
  "about": "“Cell-protective peptides and uses thereof” (priority 2010, dated 2015)",
  "system": "neonatal rat CMs (heart cells)",
  "experiment": "Apo-ONE caspase 3/7 assay after serum starvation and taxol on coated surfaces",
  "type": "cell-based, rat (Sprague-Dawley)",
  "details": "serum-starved, overnight taxol, vs control surfaces, FIG. 4",
  "protocol": "Glass coverslips were coated with Az-chitosan, or Az-chitosan conjugated with QHREDGS, RGDS, or a scrambled peptide (DGQESHR). The cells were then seeded (100,000 cells in 50 μL of CM media; seeding density of 88 cells/mm^2) on each surface (N=3), including plain glass as a control, for 15 min. The cells were then supplemented with serum-free media. After 19 hours, 5 μL of taxol (paclitaxel, Sigma), dissolved at 100 μM in DMSO, was added and maintained for 17 hours and 45 min at which time caspase assay was performed. One set of glass surfaces was not exposed to taxol treatment as a negative control.\nThe Apo-ONE caspase assay (Promega) was performed according to manufacturer's protocol. The cells were permeabilized and lyzed to release the caspases, which are activated in cells undergoing apoptosis. The assay contains rhodamine 110, bis-(N-CBZ-L-aspartyl-L-glutamyl-L-valyl-L-aspartic acid amide; Z-DEVD-R110). Caspase 3 and 7 are known to cleave the peptide DEVD and the leaving group, rhodamine 110 becomes fluorescent when excited with fluorescent light. The amount of fluorescence is proportional to the level of caspase 3/7 activity in the sample. According to the manufacturer's protocol, the caspase substrate was dissolved in a buffer at 1:100. […] The fluorescence of the buffer was read in the fluorometer at an excitation of 485 nm and a cut off of 520 nm. […]",
  "note": "No end group written: not given here.",
  "data": [
    {"substance": "Az-chitosan-QHREDGS: QHREDGS peptide covalently conjugated to Az-chitosan by EDC chemistry (also: covalently conjugated to Az-chitosan by EDC chemistry, site not given here)", "values": [
      {"measurement": "caspase-3/7 activation", "result": "significantly lower levels of caspase-3/7 activation"}
    ]}
  ]
}
